Data as given in patent publication US20160108049A1 (TAKEDA Gmbh, priority 2011, published 2016).

Tests used:
PDE4B1 = molecular target: T1, PDE4B1 (Homo sapiens, UniProt Q07343); experiment: Inhibition of PDE4 activity (PDE4B1, SPA assay); type: biochemical; conditions: recombinant PDE4B1, 0.5 μM cAMP; read-out: PDE4B1 Inhibitory values measured as -logIC50 (converted)
T1 construct: made in house; host or cells: SF21 insect cells (baculovirus; virus made in SF9 cells, pCR-Bac vector)
How it was run: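 Baculovirus-expressed enzyme from SF21 cell 1000×g supernatant; substrate 0.5 μM [3H]cAMP in 20 mM Tris pH 7.4, 5 mM Mg2+, 0.1 mg/ml BSA, 10-20% conversion. 5 min preincubation at 37 °C, 15 min reaction, stopped by SPA beads with IBMX; IC50 by non-linear regression.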

human PDE5 = molecular target: T2, human PDE5 (Homo sapiens, UniProt O76074); experiment: Inhibition of PDE5 activity (platelet lysate, SPA assay); type: biochemical; conditions: 0.5 μM cGMP, read-out: PDE5 Inhibitory values measured as -logIC50 (converted)
T2 construct: from tissue; host or cells: human platelets from fresh donor blood (platelet lysate)
How it was run: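 Human platelet lysate (10,000 g supernatant) served as PDE5 source, with 1 μM motapizone and 10 nM PDE2 inhibitor added, in Tris pH 7.4, 5 mM Mg2+, BSA. Substrate 0.5 μM [3H]cGMP, 10–20% conversion; 5 min preincubation then 15 min at 37 °C, stopped by SPA beads with IBMX. IC50 by non-linear regression.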

T1 sequence (Q07343 whole entry): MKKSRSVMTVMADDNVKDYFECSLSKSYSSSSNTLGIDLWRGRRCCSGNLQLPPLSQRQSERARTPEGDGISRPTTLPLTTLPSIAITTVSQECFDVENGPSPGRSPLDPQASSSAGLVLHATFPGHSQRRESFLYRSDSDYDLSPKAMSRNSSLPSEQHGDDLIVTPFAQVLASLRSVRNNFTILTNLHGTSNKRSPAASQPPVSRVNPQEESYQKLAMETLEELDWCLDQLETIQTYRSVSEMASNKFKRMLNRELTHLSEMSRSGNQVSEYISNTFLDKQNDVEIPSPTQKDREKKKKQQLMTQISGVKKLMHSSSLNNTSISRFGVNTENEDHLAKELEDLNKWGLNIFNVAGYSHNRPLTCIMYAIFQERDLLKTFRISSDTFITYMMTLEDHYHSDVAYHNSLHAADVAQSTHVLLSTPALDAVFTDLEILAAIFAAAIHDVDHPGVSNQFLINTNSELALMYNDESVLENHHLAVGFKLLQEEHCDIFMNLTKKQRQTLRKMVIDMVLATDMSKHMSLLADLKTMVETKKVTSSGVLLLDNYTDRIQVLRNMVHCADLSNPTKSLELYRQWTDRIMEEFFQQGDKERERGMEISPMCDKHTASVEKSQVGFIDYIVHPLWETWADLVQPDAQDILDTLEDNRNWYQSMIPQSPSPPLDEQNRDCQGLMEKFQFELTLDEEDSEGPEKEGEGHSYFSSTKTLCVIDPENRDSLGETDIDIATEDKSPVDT

| SMILES | IC50 (PDE4B1) [nM] | IC50 (human PDE5) [nM] |
| --- | --- | --- |
| COc1cc(OCC2CC2)c(-c2ncnc3c(C(=O)N[C@H](Cc4ccccc4)C(=O)N4CCC(N5N=C(c6ccc(OC)c(OC)c6)[C@H]6CCCC[C@H]6C5=O)CC4)c[nH]c23)cc1F [Example 23, 4-[2-(cyclopropylmethoxy)-5-fluoro-4-methoxyphenyl]-N-[(2R)-1-{4-[(4aS,8aR)-4-(3,4-dimethoxyphenyl)-1-oxo-4a,5,6,7,8,8a-hexahydrophthalazin-2(1H)-yl]piperidin-1-yl}-1-oxo-3-phenylpropan-2-yl]-5H-pyrrolo[3,2-d]pyrimidine-7-carboxamide] | 1 to 10 | 1 to 10 |
| COc1cc(-c2ncnc3c(C(=O)N[C@H](Cc4ccccc4)C(=O)N4CCC(N5N=C(c6ccc(OC)c(OC)c6)[C@H]6CCCC[C@H]6C5=O)CC4)c[nH]c23)c(OCC2CC2)cc1F [Example 24, 4-[2-(cyclopropylmethoxy)-4-fluoro-5-methoxyphenyl]-N-[(2R)-1-{4-[(4aS,8aR)-4-(3,4-dimethoxyphenyl)-1-oxo-4a,5,6,7,8,8a-hexahydrophthalazin-2(1H)-yl]piperidin-1-yl}-1-oxo-3-phenylpropan-2-yl]-5H-pyrrolo[3,2-d]pyrimidine-7-carboxamide] | 1 to 10 | 1 to 10 |
| COc1ccc(C[C@H](NC(=O)c2c[nH]c3c(-c4c(OCC5CC5)ccc5c4OCO5)ncnc23)C(=O)N2CCC(N3N=C(c4ccc(OC)c(OC)c4)[C@H]4CCCC[C@H]4C3=O)CC2)cc1OC [Example 25, 4-[5-(cyclopropylmethoxy)-1,3-benzodioxol-4-yl]-N-[(2S)-3-(3,4-dimethoxyphenyl)-1-{4-[(4aS,8aR)-4-(3,4-dimethoxyphenyl)-1-oxo-4a,5,6,7,8,8a-hexahydrophthalazin-2(1H)-yl]piperidin-1-yl}-1-oxopropan-2-yl]-5H-pyrrolo[3,2-d]pyrimidine-7-carboxamide] | 1 to 10 | 1 to 10 |
| COc1ccc(C2=NN(C3CCN(C(=O)[C@@H](Cc4ccccc4)NC(=O)c4c(C)[nH]c5c(-c6c(OCC7CC7)ccc7c6OCO7)ncnc45)CC3)C(=O)[C@@H]3CCCC[C@H]23)cc1OC [Example 26, 4-[5-(cyclopropylmethoxy)-1,3-benzodioxol-4-yl]-N-[(2R)-1-{4-[(4aS,8aR)-4-(3,4-dimethoxyphenyl)-1-oxo-4a,5,6,7,8,8a-hexahydrophthalazin-2(1H)-yl]piperidin-1-yl}-1-oxo-3-phenylpropan-2-yl]-6-methyl-5H-pyrrolo[3,2-d]pyrimidine-7-carboxamide] | 1 to 10 | < 1 |
| COc1ccc(C2=NN(C3CCN(C(=O)[C@@H](Cc4ccc(Cl)cc4)NC(=O)c4c[nH]c5c(-c6c(OCC7CC7)ccc7c6OCO7)ncnc45)CC3)C(=O)[C@@H]3CCCC[C@H]23)cc1OC [Example 27, N-[(2R)-3-(4-chlorophenyl)-1-{4-[(4aS,8aR)-4-(3,4-dimethoxyphenyl)-1-oxo-4a,5,6,7,8,8a-hexahydrophthalazin-2(1H)-yl]piperidin-1-yl}-1-oxopropan-2-yl]-4-[5-(cyclopropylmethoxy)-1,3-benzodioxol-4-yl]-5H-pyrrolo[3,2-d]pyrimidine-7-carboxamide] | 1 to 10 | < 1 |
| COc1ccc(C2=NN(C3CCN(C(=O)[C@@H](Cc4ccc(F)cc4)NC(=O)c4c[nH]c5c(-c6c(OCC7CC7)ccc7c6OCO7)ncnc45)CC3)C(=O)[C@@H]3CCCC[C@H]23)cc1OC [Example 28, 4-[5-(cyclopropylmethoxy)-1,3-benzodioxol-4-yl]-N-[(2R)-1-{4-[(4aS,8aR)-4-(3,4-dimethoxyphenyl)-1-oxo-4a,5,6,7,8,8a-hexahydrophthalazin-2(1H)-yl]piperidin-1-yl}-3-(4-fluorophenyl)-1-oxopropan-2-yl]-5H-pyrrolo[3,2-d]pyrimidine-7-carboxamide] | < 1 | < 1 |
| COc1ccc(C[C@@H](NC(=O)c2c[nH]c3c(-c4c(OCC5CC5)ccc5c4OCO5)ncnc23)C(=O)N2CCC(N3N=C(c4ccc(OC)c(OC)c4)[C@H]4CCCC[C@H]4C3=O)CC2)cc1 [Example 29, 4-[5-(cyclopropylmethoxy)-1,3-benzodioxol-4-yl]-N-[(2R)-1-{4-[(4aS,8aR)-4-(3,4-dimethoxyphenyl)-1-oxo-4a,5,6,7,8,8a-hexahydrophthalazin-2(1H)-yl]piperidin-1-yl}-3-(4-methoxyphenyl)-1-oxopropan-2-yl]-5H-pyrrolo[3,2-d]pyrimidine-7-carboxamide] | 1 to 10 | < 1 |
| COc1ccc(C2=NN(C3CCN(C(=O)[C@@H](Cc4cccc(Cl)c4)NC(=O)c4c[nH]c5c(-c6c(OCC7CC7)ccc7c6OCO7)ncnc45)CC3)C(=O)[C@@H]3CCCC[C@H]23)cc1OC [Example 30, N-[(2R)-3-(3-chlorophenyl)-1-{4-[(4aS,8aR)-4-(3,4-dimethoxyphenyl)-1-oxo-4a,5,6,7,8,8a-hexahydrophthalazin-2(1H)-yl]piperidin-1-yl}-1-oxopropan-2-yl]-4-[5-(cyclopropylmethoxy)-1,3-benzodioxol-4-yl]-5H-pyrrolo[3,2-d]pyrimidine-7-carboxamide] | 1 to 10 | 1 to 10 |
| COc1ccc(C2=NN(C3CCN(C(=O)[C@@H](Cc4ccccc4)NC(=O)c4c[nH]c5c(-c6c(OCC7CC7)ccc7c6OCO7)ncnc45)CC3)C(=O)[C@@H]3CCCC[C@H]23)cc1OC [Example 31, 4-[5-(cyclopropylmethoxy)-1,3-benzodioxol-4-yl]-N-[(2R)-1-{4-[(4aS,8aR)-4-(3,4-dimethoxyphenyl)-1-oxo-4a,5,6,7,8,8a-hexahydrophthalazin-2(1H)-yl]piperidin-1-yl}-1-oxo-3-phenylpropan-2-yl]-5H-pyrrolo[3,2-d]pyrimidine-7-carboxamide] | 1 to 10 | < 1 |
| COc1ccc(C2=NN(C3CCN(C(=O)[C@@H](Cc4ccccc4C(F)(F)F)NC(=O)c4c(C)[nH]c5c(-c6c(OCC7CC7)ccc7c6OCO7)ncnc45)CC3)C(=O)[C@@H]3CCCC[C@H]23)cc1OC [Example 32, 4-[5-(cyclopropylmethoxy)-1,3-benzodioxol-4-yl]-N-{(2R)-1-{4-[(4aS,8aR)-4-(3,4-dimethoxyphenyl)-1-oxo-4a,5,6,7,8,8a-hexahydrophthalazin-2(1H)-yl]piperidin-1-yl}-1-oxo-3-[2-(trifluoromethyl)phenyl]propan-2-yl}-6-methyl-5H-pyrrolo[3,2-d]pyrimidine-7-carboxamide] | 1 to 10 | 1 to 10 |
| COc1ccc(C2=NN(C3CCN(C(=O)[C@@H](Cc4ccccc4C(F)(F)F)NC(=O)c4c[nH]c5c(-c6c(OCC7CC7)ccc7c6OCO7)ncnc45)CC3)C(=O)[C@@H]3CCCC[C@H]23)cc1OC [Example 33, 4-[5-(cyclopropylmethoxy)-1,3-benzodioxol-4-yl]-N-{(2R)-1-{4-[(4aS,8aR)-4-(3,4-dimethoxyphenyl)-1-oxo-4a,5,6,7,8,8a-hexahydrophthalazin-2(1H)-yl]piperidin-1-yl}-1-oxo-3-[2-(trifluoromethyl)phenyl]propan-2-yl}-5H-pyrrolo[3,2-d]pyrimidine-7-carboxamide] | 1 to 10 | < 1 |
| COc1ccc(C2=NN(C3CCN(C(=O)[C@@H](Cc4ccccc4Cl)NC(=O)c4c(C)[nH]c5c(-c6c(OCC7CC7)ccc7c6OCO7)ncnc45)CC3)C(=O)[C@@H]3CCCC[C@H]23)cc1OC [Example 34, N-[(2R)-3-(2-chlorophenyl)-1-{4-[(4aS,8aR)-4-(3,4-dimethoxyphenyl)-1-oxo-4a,5,6,7,8,8a-hexahydrophthalazin-2(1H)-yl]piperidin-1-yl}-1-oxopropan-2-yl]-4-[5-(cyclopropylmethoxy)-1,3-benzodioxol-4-yl]-6-methyl-5H-pyrrolo[3,2-d]pyrimidine-7-carboxamide] | < 1 | < 1 |
| COc1ccc(C2=NN(C3CCN(C(=O)[C@@H](Cc4ccccc4Cl)NC(=O)c4c[nH]c5c(-c6c(OCC7CC7)ccc7c6OCO7)ncnc45)CC3)C(=O)[C@@H]3CCCC[C@H]23)cc1OC [Example 35, N-[(2R)-3-(2-chlorophenyl)-1-{4-[(4aS,8aR)-4-(3,4-dimethoxyphenyl)-1-oxo-4a,5,6,7,8,8a-hexahydrophthalazin-2(1H)-yl]piperidin-1-yl}-1-oxopropan-2-yl]-4-[5-(cyclopropylmethoxy)-1,3-benzodioxol-4-yl]-5H-pyrrolo[3,2-d]pyrimidine-7-carboxamide] | < 1 | < 1 |
| COc1ccc(C2=NN(C3CCN(C(=O)[C@H](Cc4ccccc4)NC(=O)c4c[nH]c5c(-c6c(OCC7CC7)ccc7c6OCO7)ncnc45)CC3)C(=O)[C@@H]3CCCC[C@H]23)cc1OC [Example 36, 4-[5-(cyclopropylmethoxy)-1,3-benzodioxol-4-yl]-N-[(2S)-1-{4-[(4aS,8aR)-4-(3,4-dimethoxyphenyl)-1-oxo-4a,5,6,7,8,8a-hexahydrophthalazin-2(1H)-yl]piperidin-1-yl}-1-oxo-3-phenylpropan-2-yl]-5H-pyrrolo[3,2-d]pyrimidine-7-carboxamide] | 1 to 10 | 1 to 10 |
| COc1cc(OCC2CC2)c(-c2ncnc3c(C(=O)N[C@@H](C(=O)N4CCC(N5N=C(c6ccc(OC)c(OC)c6)[C@H]6CCCC[C@H]6C5=O)CC4)[C@H](C)c4ccccc4)c(C)[nH]c23)cc1F [Example 37, 4-[2-(cyclopropylmethoxy)-5-fluoro-4-methoxyphenyl]-N-[(2R,3R)-1-{4-[(4aS,8aR)-4-(3,4-dimethoxyphenyl)-1-oxo-4a,5,6,7,8,8a-hexahydrophthalazin-2(1H)-yl]piperidin-1-yl}-1-oxo-3-phenylbutan-2-yl]-6-methyl-5H-pyrrolo[3,2-d]pyrimidine-7-carboxamide] | 1 to 10 | 1 to 10 |
